Source: ChEMBL document CHEMBL3576837, “Targeted natural products discovery from marine cyanobacteria using combined phylogenetic and mass spectrometric evaluation” (2015)

Columns and labels:
Assay type in all cases: functional
HT-29 [1] = assay: Cytotoxicity against human HT-29 cells assessed as cell viability at 0.32 nM incubated for 48 hrs in presence of 4 nM largazole by MTT assay
HT-29 [2] = assay: Cytotoxicity against human HT-29 cells assessed as cell viability at 0.32 nM incubated for 48 hrs by MTT assay; conditions: HT-29, 48 h, read-out: Activity
HT-29 [3] = assay: Cytotoxicity against human HT-29 cells assessed as cell viability at 4 nM incubated for 48 hrs in presence of 0.32 nM dolastatin 10 by MTT assay
HT-29 [4] = assay: Cytotoxicity against human HT-29 cells assessed as cell viability at 4 nM incubated for 48 hrs by MTT assay; conditions: HT-29, 48 h, read-out: Activity

| Structure (SMILES) | Activity (HT-29 [1]) | viability at 0.00032 µM (HT-29 [2]) | Activity (HT-29 [3]) | viability at 0.004 µM (HT-29 [4]) |
| --- | --- | --- | --- | --- |
| CC[C@H](C)[C@@H]([C@@H](CC(=O)N1CCC[C@H]1[C@H](OC)[C@@H](C)C(=O)N[C@@H](Cc1ccccc1)c1nccs1)OC)N(C)C(=O)[C@@H](NC(=O)[C@H](C(C)C)N(C)C)C(C)C [DOLASTATIN-10] | 55% | 80% | – | – |
| CCCCCCCC(=O)SCC/C=C/[C@@H]1CC(=O)NCc2nc(cs2)C2=N[C@@](C)(CS2)C(=O)N[C@@H](C(C)C)C(=O)O1 [LARGAZOLE] | – | – | 55% | 80% |
